Read-outs that look alike come from different tables or passages of the source. Square brackets hold non-standard residues; d marks the D form. Peptide text beside a SMILES is read from it. dNle = CCCC[C@@H](N)C(=O)O
Tests used:
[1] = tested on: rat peritoneal mast cells; assay: In vitro histamine induction in rat peritoneal mast cells; type: cell-based
Description: To further evaluate the relationship between compound structure and histamine release, a series of compounds was prepared and assessed for their ability to trigger induction of histamine in an in vitro assay using rat peritoneal mast cells. In this assay, compounds are incubated at 10 μM for 15 minutes at 37° C. with cells isolated from peritoneal lavage of SD rats. Following incubation, cell medium is collected and histamine is determined.
Accordingly, and as can be appreciated in view of the PTH data and the histamine data described hereinabove, in one embodiment, a compound that has activity to decrease PTH level in a subject in the absence of a histamine response is contemplated. In certain embodiments, absence of a histamine response intends a dose of the compound that produces a less than 10-fold, more preferably 8-fold, still more preferably 5-fold, and even still more preferably 3-fold, increase in histamine, measured in vitro in an assay as described herein, where the fold change is determined based on histamine levels before incubation with the compound and after 15 minutes incubation with compound. In a specific embodiment, the histamine response is determined in an in vitro assay using rat peritoneal mast cells isolated from peritoneal lavage of normal Sprague Dawley rats, and where the fold change is determined based on histamine levels before incubation with the compound and after 15 minutes incubation with compound. In the studies conducted herein, the in vitro evaluation of histamine release was performed using isolated rat peritoneal mast cells isolated by peritoneal lavage using cold HBSS+25 mM HEPES pH 7.4 containing heparin (5 u/mL). Cells were washed twice in stimulation buffer (HBSS+25 mM HEPES pH 7.4) and incubated with 10 μM of compound in stimulation buffer (HBSS+25 mM HEPES pH 7.4) for 15 minutes in a 96-well plate ([…]) at 37° C. Cell supernatant was analyzed for histamine using histamine EIA kit (Cayman #589651).
For in vitro evaluation of histamine release, isolated rat peritoneal mast cells were isolated by performing peritoneal lavage using cold HBSS+25 mM HEPES pH 7.4 containing heparin (5 u/mL). Cells were washed twice in stimulation buffer (HBSS+25 mM HEPES pH 7.4) and incubated with 10 μM of compound in stimulation buffer (HBSS+25 mM HEPES pH 7.4) for 15 minutes in a 96-well plate (10^6/well) at 37° C. Cell supernatant was analyzed for histamine using histamine EIA kit (Cayman #589651).

plasma PTH = assay: In vivo PTH lowering after IV bolus in isoflurane-anesthetized normal Sprague Dawley rats; design: species or system rat; conditions: for 0.5 mg/kg IV bolus % PTH AUC of saline control: normal rats, AUC 1-4 h; for % PTH reduction of baseline at 1 hour post IV administration of 0.5 mg/kg compound: isoflurane-anesthetized normal rats, 0.5 mg/kg IV
Description: The peptides were administered intravenously at a dose of 0.5 mg/kg into isoflurane-anesthetized normal Sprague Dawley rats. A control group of rats was treated with saline. Blood was drawn prior to dosing and every hour for 4 hours. Rats were maintained under isoflurane anesthesia for the entire study. […] Percent PTH reduction was calculated according to the following formula: AUCcmpd treated/AUCsaline control*100.
An intravenous (IV) bolus of saline was used as a control. Plasma (K2EDTA) PTH levels were assessed prior to dosing and 1, 2, 3 and 4 hours after dosing. Rats were maintained under isoflurane anesthesia for the entire study. […] In FIG. 2B, PTH is shown as percent of the baseline pre-dose value.
A series of compounds having an L-amino acid residue substituted for a D-amino acid residue were prepared. The compounds were administered as an IV bolus to normal Sprague Dawley rats at a dose of 0.5 mg/kg. An intravenous (IV) bolus of saline was used as a control. […] Rats were maintained under isoflurane anesthesia for the entire study.

[2] = Table 9, 10 μM, 15 minutes, 37° C.

| Structure (SMILES) | Histamine in vitro Fold change of non-treated at 10 uM [1] [fold] | 0.5 mg/kg IV bolus % PTH AUC of saline control (plasma PTH; Table 6) [%] | 0.5 mg/kg IV bolus % PTH AUC of saline control (plasma PTH; Table 7) [%] | % PTH reduction of baseline at 1 hour post IV administration of 0.5 mg/kg compound (plasma PTH; Table 2) [%] | 0.5 mg/kg IV bolus % PTH AUC of saline control (plasma PTH; Table 2) [%] | Histamine in vitro Fold change of non-treated at 10 uM [1, 2] [fold] |
| --- | --- | --- | --- | --- | --- | --- |
| CC(=O)N[C@H](CS)C(=O)N[C@H](CCCNC(=N)N)C(=O)N[C@H](CCCNC(=N)N)C(=O)N[C@H](CO)C(=O)N[C@H](CCCNC(=N)N)C(=O)N[C@H](C)C(=O)N[C@H](CCCNC(=N)N)C(N)=O [SEQ ID NO: 111, Ac-crrsrar-NH2] (Ac-[dC][dR][dR][dS][dR][dA][dR]-NH2) | 2.0 | 4 | – | – | – | – |
| CCCC[C@@H](NC(=O)[C@@H](CS)NC(C)=O)C(=O)N[C@H](CCCNC(=N)N)C(=O)N[C@H](CCCNC(=N)N)C(=O)N[C@H](CCCNC(=N)N)C(=O)N[C@H](C)C(=O)N[C@H](CCCNC(=N)N)C(N)=O [SEQ ID NO: 134, Ac-c-dNle-rrrar-NH2] (Ac-[dC][dNle][dR][dR][dR][dA][dR]-NH2) | 2.2 | – | 10 | – | – | – |
| CC(=O)N[C@H](CS)C(=O)N[C@H](C)C(=O)N[C@H](C)C(=O)N[C@H](CCCNC(=N)N)C(=O)N[C@H](CCCNC(=N)N)C(=O)N[C@H](CCCNC(=N)N)C(=O)N[C@H](CCCNC(=N)N)C(N)=O [SEQ ID NO: 22, Ac-caarrrr-NH2] (Ac-[dC][dA][dA][dR][dR][dR][dR]-NH2) | 1.2 | – | – | 24 | 48 | – |
| CC(=O)N[C@H](CS)C(=O)N[C@H](C)C(=O)N[C@H](CCCNC(=N)N)C(=O)N[C@H](CCCNC(=N)N)C(=O)N[C@H](CCCNC(=N)N)C(=O)N1CCC[C@@H]1C(=O)N[C@H](CCCNC(=N)N)C(N)=O [SEQ ID NO: 88, Ac-carrrpr-NH2] (Ac-[dC][dA][dR][dR][dR][dP][dR]-NH2) | 1.0 | 76 | – | – | – | – |
| CC(=O)N[C@H](CS)C(=O)N[C@H](CO)C(=O)N[C@H](CCCNC(=N)N)C(=O)N[C@H](CCCNC(=N)N)C(=O)N[C@H](CCCNC(=N)N)C(=O)N[C@H](C)C(=O)N[C@H](CCCNC(=N)N)C(N)=O [SEQ ID NO: 102, Ac-csrrrar-NH2] (Ac-[dC][dS][dR][dR][dR][dA][dR]-NH2) | 0.9 | 13 | – | – | – | – |
| CC(=O)N[C@H](CS)C(=O)N[C@H](CCCNC(=N)N)C(=O)N[C@H](C)C(=O)N[C@H](C)C(=O)N[C@H](CCCNC(=N)N)C(=O)N[C@H](CCCNC(=N)N)C(=O)N[C@H](CCCNC(=N)N)C(N)=O [SEQ ID NO: 24, Ac-craarrr-NH2] (Ac-[dC][dR][dA][dA][dR][dR][dR]-NH2) | 1.0 | – | – | 8 | 9 | – |
| CC(=O)N[C@H](CS)C(=O)N[C@H](C)C(=O)N[C@H](CCCNC(=N)N)C(=O)N[C@H](CCCNC(=N)N)C(=O)N[C@H](CCCNC(=N)N)C(=O)N[C@H](CC(C)C)C(=O)N[C@H](CCCNC(=N)N)C(N)=O [SEQ ID NO: 85, Ac-carrrlr-NH2] (Ac-[dC][dA][dR][dR][dR][dL][dR]-NH2) | – | 140 | – | – | – | 2.5 |
| CC(=O)N[C@H](CS)C(=O)N[C@H](CCCNC(=N)N)C(=O)N[C@H](CCCNC(=N)N)C(=O)N[C@H](CCC(=O)O)C(=O)N[C@H](CCCNC(=N)N)C(=O)N[C@H](C)C(=O)N[C@H](CCCNC(=N)N)C(N)=O [SEQ ID NO: 107, Ac-crrerar-NH2] (Ac-[dC][dR][dR][dE][dR][dA][dR]-NH2) | – | 56 | – | – | – | 0.6 |
| CC(=O)N[C@H](CS)C(=O)N[C@H](CCCNC(=N)N)C(=O)N[C@H](CCCNC(=N)N)C(=O)N[C@H](CCCNC(=N)N)C(=O)N[C@H](C)C(=O)N[C@H](C)C(=O)N[C@H](CCCNC(=N)N)C(N)=O [SEQ ID NO: 21, Ac-crrraar-NH2] (Ac-[dC][dR][dR][dR][dA][dA][dR]-NH2) | 1.0 | – | – | 36 | 50 | – |
| CC(=O)N[C@H](CS)C(=O)N[C@H](CCCNC(=N)N)C(=O)N[C@H](C)C(=O)N[C@H](CCCNC(=N)N)C(=O)N[C@H](C)C(=O)N[C@H](CCCNC(=N)N)C(=O)N[C@H](CCCNC(=N)N)C(N)=O [SEQ ID NO: 18, Ac-crararr-NH2] (Ac-[dC][dR][dA][dR][dA][dR][dR]-NH2) | 1.4 | – | – | 72 | 87 | – |
| CC(=O)N[C@H](CS)C(=O)N[C@H](CCCNC(=N)N)C(=O)N[C@H](CCCNC(=N)N)C(=O)N1CCC[C@@H]1C(=O)N[C@H](CCCNC(=N)N)C(=O)N[C@H](C)C(=O)N[C@H](CCCNC(=N)N)C(N)=O [SEQ ID NO: 106, Ac-crrprar-NH2] (Ac-[dC][dR][dR][dP][dR][dA][dR]-NH2) | 1.1 | 68 | – | – | – | – |
| CC(=O)N[C@H](CS)C(=O)N[C@H](C)C(=O)N[C@H](CCCNC(=N)N)C(=O)N[C@H](CCCNC(=N)N)C(=O)N[C@H](CCCNC(=N)N)C(=O)N[C@H](Cc1c[nH]cn1)C(=O)N[C@H](CCCNC(=N)N)C(N)=O [SEQ ID NO: 89, Ac-carrrhr-NH2] (Ac-[dC][dA][dR][dR][dR][dH][dR]-NH2) | 2.0 | 48 | – | – | – | – |
| CC(=O)N[C@H](CS)C(=O)N[C@H](CCCNC(=N)N)C(=O)N[C@H](CCCNC(=N)N)C(=O)N[C@@H](C(=O)N[C@H](CCCNC(=N)N)C(=O)N[C@H](C)C(=O)N[C@H](CCCNC(=N)N)C(N)=O)[C@H](C)O [SEQ ID NO: 108, Ac-crrtrar-NH2] (Ac-[dC][dR][dR][dT][dR][dA][dR]-NH2) | 1.2 | 13 | – | – | – | – |
| CC(=O)N[C@H](CS)C(=O)N[C@H](CCCNC(=N)N)C(=O)N[C@H](CCCNC(=N)N)C(=O)N[C@H](CC(C)C)C(=O)N[C@H](CCCNC(=N)N)C(=O)N[C@H](C)C(=O)N[C@H](CCCNC(=N)N)C(N)=O [SEQ ID NO: 114, Ac-crrlrar-NH2] (Ac-[dC][dR][dR][dL][dR][dA][dR]-NH2) | 4.5 | 1 | – | – | – | – |
| CC[C@@H](C)[C@@H](NC(=O)[C@@H](CCCNC(=N)N)NC(=O)[C@@H](CCCNC(=N)N)NC(=O)[C@@H](CCCNC(=N)N)NC(=O)[C@@H](C)NC(=O)[C@@H](CS)NC(C)=O)C(=O)N[C@H](CCCNC(=N)N)C(N)=O [SEQ ID NO: 84, Ac-carrrir-NH2] (Ac-[dC][dA][dR][dR][dR][dI][dR]-NH2) | 1.8 | 161 | – | – | – | – |
| CC(=O)N[C@H](CS)C(=O)N[C@H](CCC(N)=O)C(=O)N[C@H](CCCNC(=N)N)C(=O)N[C@H](CCCNC(=N)N)C(=O)N[C@H](CCCNC(=N)N)C(=O)N[C@H](C)C(=O)N[C@H](CCCNC(=N)N)C(N)=O [SEQ ID NO: 99, Ac-cqrrrar-NH2] (Ac-[dC][dQ][dR][dR][dR][dA][dR]-NH2) | 1.9 | 24 | – | – | – | – |
| CC(=O)N[C@H](CS)C(=O)N[C@H](Cc1ccccc1)C(=O)N[C@H](CCCNC(=N)N)C(=O)N[C@H](CCCNC(=N)N)C(=O)N[C@H](CCCNC(=N)N)C(=O)N[C@H](C)C(=O)N[C@H](CCCNC(=N)N)C(N)=O [SEQ ID NO: 104, Ac-cfrrrar-NH2] (Ac-[dC][dF][dR][dR][dR][dA][dR]-NH2) | 6.8 | 0 | – | – | – | – |

— patent US10280198B2, “Therapeutic agents for reducing parathyroid hormone levels” (KAI PHARMACEUTICALS, INC., priority 2009, dated 2019)
